Measurements from patent publication US20230203016A1, “DICARBOXYLIC ACID BISAMIDE DERIVATIVES, USE THEREOF, PHARMACEUTICAL COMPOSITION BASED THEREON AND METHODS FOR PRODUCING DICARBOXYLIC ACID BISAMIDE DERIVATIVES” (TREAMID THERAPEUTICS GMBH, priority 2013, published 2023).

Legend:
[1] = First stability constant of complexes with copper ions by pH-metric titration, Bjerrum method; type: physicochemical; conditions: aqueous solution, CL = 0.02M; M^z+/L = 1:6; ion strength 0.5 (KNO3), 22° C.
Method: (§1) Initial 0.05 M solutions of M^z+ metal ions were prepared from nitrates of zinc (Zn(NO3)2·6H2O), calcium (Ca(NO3)2·4H2O), copper sulfate (CuSO4·5H2O), magnesium chloride (MgCl2·6H2O) and Mohr's salt ((NH4)2Fe(SO4)2·6H2O). Standardization of the initial solutions of M^z+ salts was performed by a complexometric titration method with trilon B (M^z+=Zn^2+, Cu^2+, Mg^2+, Ca^2+) and a spectrophotometric method at 490 nm by using o-phenanthroline (M^z+=Fe^2+).
(§2) Given the parameters, such as the amount of a studied compound required for potentiometric titration, a testing procedure and a constant calculation method, the Bjerrum method is most suitable and informative [Yu. P. Galaktionov, M. A. Chistyakov, V. G. Sevastiyanov, etc., “Step Stability Constants of Group IIIB Metal and Lanthanide Complexes with Acetylacetone in Aqueous Solution and the Solubility Products of Metal Triacetylacctonates”, Journal of physical chemistry, 2004, v. 78, No. 9, pp. 1596-1604].
(§3) The method is based on the view that the process of complex formation is stepwise. A main assumption of the Bjerrum method is an assumption about the formation of only […] complexes. The process of complex formation can be schematically described as follows:
(§4) According to the Bjerrum method, a studied compound is titrated with a NaOH solution twice: in the absence of and in the presence of a metal ion. The titration is performed under a high constant concentration of an indifferent electrolyte, which provides the solution with a constant ionic strength.
(§5) For these purposes, highly soluble salts are used, for example, sodium and potassium salts. Concentration step stability constants (Kn) are determined from experiments. In addition, the method provides information concerning the composition of a formed complex, in particular, the maximum possible number of bound ligands (n).
(§6) Traditional procedure for determining step stability constants for complexes by the Bjerrum method of pH-metric titration was performed as follows.
(§7) A sample of a studies compound (3·10^−4 mol) was dissolved in 14.0 ml of a 0.5M aqueous KNO3 solution. One ml of a 0.05M aqueous solution of an M^z+ salt was added under vigorous stirring. The systems were studied with a M^z+/L ratio of 1:6. The pH value of a solution was fixed for coexisting ligands and metal ions. […] The value of lgKn was determined by the Bjerrum curve n=f(pA) for each semi-integer value of the function of complex formation n=n−0.5.
(§8) Today the Bjerrum method is frequently used to study complex formation processes. […] Thus, using experimental data, the value [L^−] can be calculated for each time point of the titration (in particular, −lg[L^−]=pA), and n can be calculated by equation (1). […]

[2] = First stability constant of complexes with magnesium ions by pH-metric titration, Bjerrum method; type: physicochemical; conditions: aqueous solution, CL = 0.02M; M^z+/L = 1:6; ion strength 0.5 (KNO3), 22° C.
Method: as §1, §2, §3, §4, §5, §6, §7, §8

[3] = Stability constants of complexes with zinc ions by pH-metric titration, Bjerrum method; type: physicochemical; conditions: aqueous solution, CL = 0.02M, M^z+/L = 1:6, ion strength 0.5 (KNO3), 22° C.; for The first stability constant of complexes with 1:1 compositions, lgK1, Zn (II): Table 4; for The first stability constant, lgK1 (zinc ions) / The second stability constant, lgK2 (zinc ions) / The third stability constant, lgK3 (zinc ions): Table 5
Method: as §1, §2, §3, §4, §5, §6
(§9) A sample of a studies compound (3·10^−4 mol) was dissolved in 14.0 ml of a 0.5M aqueous KNO3 solution. One ml of a 0.05M aqueous solution of an M^z+ salt was added under vigorous stirring. The systems were studied with a M^z+/L ratio of 1:6. The pH value of a solution was fixed for coexisting ligands and metal ions. The mixture was titrated with a 0.05M NaOH aqueous solution within a broad range of pH values (up to pH 11.0-11.5). The amount of the used titrant (VNaOH, ml) and the pH value of the solution were registered in each titration point. At the moment when a residue formed, the solution became turbid, or the color of the solution changed, the pH value, the nature of the change and the amount of NaOH spent for the titration were registered. The step of titration was 0.25 ml. The value of lgKn was determined by the Bjerrum curve n=f(pA) for each semi-integer value of the function of complex formation n=n−0.5.
Today the Bjerrum method is frequently used to study complex formation processes. This method provides for the determination of two parameters: the concentration of a free ligand under equilibrium conditions ([L^−]) and the function of complex formation n which is the average number of ligands involved in the complex. Thus, using experimental data, the value [L^−] can be calculated for each time point of the titration (in particular, −lg[L^−]=pA), and n can be calculated by equation (1). When a ligand has several dissociating groups, the KL value in equation (1) matches the value of the dissociation constant with the largest pk value.
The Kn value is found from the Bjerrum curve (curve of the complex formation) n=f(pA) plotted according to equation (2) for each semi-integer value (n=n−0.5) of the function of the complex formation. Thus, the step stability constant will be equal to the reciprocal concentration of a free ligand at a point of n=n−0.5. […]

[4] = Acid dissociation constants (pk) by pH-potentiometric titration, Schwarzenbach method; type: physicochemical; conditions: aqueous solution, C = 0.02M, ionic strength 0.5 (KNO3), 22° C.; for pk1: titration with 0.05M HCl aqueous solution (footnote 1); for pk2: titration with 0.05M aqueous NaOH solution (footnote 2)
Method: An important property of a ligand to form a complex is dissociation constants (pkn) of studied compounds in an aqueous solution. The pkn values are determined by a potentiometric titration method. The calculation of dissociation constants are performed by the Schwarzenbach method [Grinberg A. A., “An introduction to the chemistry of complex compounds”, fourth ed., Amend., L., Khimiya, 1971].
Titration was performed on an apparatus by using a laboratory ionomer I 120.1. A designed galvanic cell consisted of two electrodes, in particular an indicator glass electrode and a silver chloride comparison electrode. The pH value was measured with an accuracy of ±0.2.
A traditional method for determining acid dissociation step constants (k1, . . . , kn) by using pH-metric titration is the Schwarzenbach method.
A sample of a studied compound (3·10^−4 mol) was dissolved in 15.0 ml of a 0.5M aqueous KNO3 solution. The obtained […] solution was titrated with a 0.05M aqueous solution of NaOH or HCl under stirring. The amount (V, ml) of the used titrant and the pH value of the solution were registered in each titration point. A titration step was equal to 0.5 ml, and 0.2 ml in the proximity to the equivalency point. Titration was continued until the pH value of the solution reached 11.0 to 11.5. The pH value of the solution corresponding to a=0.5 and/or a=1.5 was determined by the titration curve pH=f(a), and the amount of added gram-equivalents of the titrant was calculated in terms of 1 mole of a titrated compound.

[5] = First stability constant of complexes with Fe (III) by pH-metric titration, Bjerrum method; type: physicochemical; conditions: aqueous solution, CL = 0.02M; M^z+/L = 1:6; ion strength 0.5 (KNO3), 22° C.
Source text: as §2, §3, §4, §5, §6, §9, §8

[6] = Study of the chelating ability (summary statements on complex formation); type: physicochemical; conditions: statement in words
[7] = First stability constant of complexes with Fe (II) by pH-metric titration, Bjerrum method; type: physicochemical; conditions: aqueous solution, CL = 0.02M; M^z+/L = 1:6; ion strength 0.5 (KNO3), 22° C.
Method: as §1, §2, §3, §4, §5, §6, §7, §8

[8] = First stability constant of complexes with calcium ions by pH-metric titration, Bjerrum method; type: physicochemical; conditions: aqueous solution, CL = 0.02M; M^z+/L = 1:6; ion strength 0.5 (KNO3), 22° C.
Method: as §1, §2, §3
According to the Bjerrum method, a studied compound is titrated with a NaOH solution twice: in the absence of and in the presence of a metal ion. […]
For these purposes, highly soluble salts are used, for example, sodium and potassium salts. Concentration step stability constants (Kn) are determined from experiments. […]
A sample of a studies compound (3·10^−4 mol) was dissolved in 14.0 ml of a 0.5M aqueous KNO3 solution. […] The value of lgKn was determined by the Bjerrum curve n=f(pA) for each semi-integer value of the function of complex formation n=n−0.5.
as §8

Row | melting point [°C] | The first stability constant of complexes with 1:1 compositions, lgK1, Cu (II) [1] | The first stability constant of complexes with 1:1 compositions, lgK1, Mg (II) [2] | The first stability constant of complexes with 1:1 compositions, lgK1, Zn (II) [3] | The first stability constant, lgK1 (zinc ions) [3] | The second stability constant, lgK2 (zinc ions) [3] | The third stability constant, lgK3 (zinc ions) [3] | pk1 [4] | pk2 [4] | The first stability constant of complexes with 1:1 compositions, lgK1, Fe (III) [5] | The first stability constant of complexes with 1:1 compositions, lgK1, Fe (II) [7] | The first stability constant of complexes with 1:1 compositions, lgK1, Ca (II) [8] | SMILES | ability to form complexes with or chelate metal ions [6]
1 | 166 to 168 | 4.39 | 2.82 | 5.05 | 5.05 | 4.70 | 2.87 | 7.16^(1) | 11.89^(2) | 6.60 | 6.27 | – | O=C(CCCC(=O)NCCc1cnc[nH]1)NCCc1cnc[nH]1 [Compound 11, N,N′-bis-[2-(1H-imidazol-4-yl)ethyl]pentanediamide] | capable of forming complexes with metal ions
2 | 230 to 231 | 5.32 | 4.36 | 5.40 | 5.40 | 5.05 | 3.80 | 6.88 | 11.27^(2) | 6.59 | 5.95 | 4.57 | O=C(CCC(=O)NCCc1cnc[nH]1)NCCc1cnc[nH]1 [Compound 3, N,N′-bis-[2-(1H-imidazol-4-yl)ethyl]butanediamide] | –
3 | – | – | – | – | 5.50 | 5.24 | 4.48 | – | – | – | – | – | O=C(CCCC(=O)NCCc1ncc[nH]1)NCCc1ncc[nH]1 [Compound 10] | –
4 | – | – | – | – | 5.62 | 5.15 | 4.04 | – | – | – | – | – | O=C(NCCc1c[nH]cn1)c1cccc(C(=O)NCCc2c[nH]cn2)c1 [Compound 6, Bis-1,3-(N^β-histaminyl)isophthalic acid] | –
5 | – | – | – | – | 6.25 | 5.80 | 5.05 | – | – | – | – | – | O=C(CCCC(=O)NCCc1nccs1)NCCc1nccs1 [Compound 8] | –
6 | 184 to 186 | 4.62 | 3.72 | 5.46 | 5.46 | 5.03 | 3.38 | 7.13^(1) | 11.95^(2) | 6.10 | 6.40 | 3.60 | O=C(CCCCC(=O)NCCc1cnc[nH]1)NCCc1cnc[nH]1 [Compound 12, N,N′-bis-[2-(1H-imidazol-4-yl)ethyl]hexanediamide] | –

Row | SMILES | melting point [°C] | The first stability constant of complexes with 1:1 compositions, lgK1, Cu (II) [1] | The first stability constant of complexes with 1:1 compositions, lgK1, Mg (II) [2] | The first stability constant of complexes with 1:1 compositions, lgK1, Zn (II) [3] | The first stability constant, lgK1 (zinc ions) [3] | The second stability constant, lgK2 (zinc ions) [3] | The third stability constant, lgK3 (zinc ions) [3] | pk1 [4] | pk2 [4] | The first stability constant of complexes with 1:1 compositions, lgK1, Fe (III) [5] | The first stability constant of complexes with 1:1 compositions, lgK1, Fe (II) [7] | The first stability constant of complexes with 1:1 compositions, lgK1, Ca (II) [8] | ability to form complexes with or chelate metal ions [6]
7 | O=C(NCCc1cnc[nH]1)C(=O)NCCc1cnc[nH]1 [Compound 1, N,N′-bis-[2-(1H-imidazol-4-yl)ethyl]ethanediamide] | – | – | – | – | 4.52 | 4.21 | 3.75 | – | – | – | – | – | –
8 | O=C(CC(=O)NCCc1cnc[nH]1)NCCc1cnc[nH]1 [Compound 2, N,N′-bis-[2-(1H-imidazol-4-yl)ethyl]propanediamide] | – | 4.17 | 2.59 | 4.84 | 4.84 | 4.50 | 2.60 | 7.11^(1) | 11.27^(2) | 5.29 | 5.08 | 2.06 | –
